Read-outs that look alike come from different tables or passages of the source.
Assays:
Erysiphe-graminis = experiment: Field experiments on spring wheat Star: disease level Erysiphe graminis; assay type: in vivo; details: soil application in CR granules combined with strobilurin, Table 12 series
From the text: Due to the rapid release of active ingredient, the long-term action of this sample was insufficient, so that only a minor effect was discernible in comparison with the untreated sample.
The carriers employed were urea and Rasenfloranid granules.

[1] = assay type: in vivo, winter wheat; details: for epoxiconazole detected per kg of biomass: winter wheat, in vivo
Procedure: This product was applied together with cereal seed (winter wheat). On average, approx. 3 fungicidal active ingredient pellets were deposited subterraneously per seed kernel. Epoxiconazole was detected in the growing cereal plants two and six months after application. Two months after sowing, 0.038 mg were detected per kg of biomass, and six months after application 0.022 mg were still detected per kg of biomass.

[2] = Granule elution apparatus: release of active ingredient from CR granules into about 4000 ml water in 24 h; assay type: physicochemical; details: for active ingredient detected in the collected liquid: Example 3 granules (PVA+PVP coating), 30 g of granules, 3980 g of water in 24 hours; for Release rate in 24 h at 40° C., 4000 ml: coating percentage 4%
Procedure: The plant serves to determine the delayed release of active ingredients or salts from controlled release (CR) formulations. A frit on which the granules to be tested are placed is located in a cylindrical vessel at the lower edge. Underneath the frit there is an S-shaped drain which causes liquid to drain from the cylinder only when it is 80% full. Water (if appropriate together with wetter) is pumped through the CR formulations in a cylindrical feed container (approx. volume 100 ml) by means of a hose pump in such a way that the feed material is surrounded completely by water. The percolating water is collected in receiving vessels. An automatic switch causes the receiving vessels to be changed in order to determine the release of active ingredients over time. […] Unless elution temperatures are specified, a bath temperature of 30° C. was set.
The elution plant operates 24 hours a day in conjunction with the program control. One elution takes 24 hours, and during this time approx. 4000 ml of fluid are pumped through the feed material and collected in receiving vessels. The active ingredient content in the eluate is determined by means of HPLC or GC. Whether release is uniform can be checked with reference to the feed material. The cumulative value provides a measure for assessing granule permeability.
The release rate of the active ingredients was determined in the above-described elution apparatus. To this end, 30 g of the carrier granules were weighed into a trapped container equipped with a frit. In 24 hours, an amount of 3980 g of water was pumped through the container and collected. 124 mg of fenpropimorph and 19 mg of epoxiconazole were detected in the collected liquid.

## CC(=O)Oc1ccccc1C(=O)O [Comp. 7, acetylsalicylic acid]
Erysiphe-graminis; listed as Compound 7
  activity-enhancing effect in combination (words): same activity-enhancing effects as Bion®

## Fc1ccc([C@]2(Cn3cncn3)O[C@H]2c2ccccc2Cl)cc1 (racemic) [Comp. 6, (2RS,3SR)-1-[3-(2-chlorophenyl)-2,3-epoxy-2-(4-fluorophenyl)-propyl]-1H-1,2,4-triazole]
[1]; PVA+PVP coating, Example 3
  controlled release of the active ingredient in the soil, duration: at least 6 months
[1]; 2 months
  epoxiconazole detected per kg of biomass: 0.038 mg per kg of biomass
[1]; 6 months
  epoxiconazole detected per kg of biomass: 0.022 mg per kg of biomass
[2]
  active ingredient detected in the collected liquid: 19 mg
[2]; filler (starch C-Pur) 0%
  Release rate in 24 h at 40° C., 4000 ml: 2.70%
[2]; filler (starch C-Pur) 10%
  Release rate in 24 h at 40° C., 4000 ml: 3.30%
[2]; filler (starch C-Pur) 20%
  Release rate in 24 h at 40° C., 4000 ml: 7.15%

## CC(Cc1ccc(C(C)(C)C)cc1)CN1C[C@@H](C)O[C@@H](C)C1 (mixture of isomers) [Comp. 1, (±)-cis-4-[3-(4-tert-butylphenyl)-2-methylpropyl]-2,6-dimethyl-morpoline]
[2]
  active ingredient detected in the collected liquid: 124 mg

## CC(=O)Oc1ccccc1C(=O)O [acetylsalicylic acid]
Erysiphe-graminis
  activity-enhancing effect in combination (words): activity-enhancing effects

From patent US7344730B1, “Soil granulates with controlled active ingredient release (cr soil granulates)” (BASF SE, priority 1998, dated 2008)
